The record followed here is patent EP3915971A1, “PHENYL-S(O)N-PHENYLAMIDINES AND THE USE THEREOF AS FUNGICIDES” (Bayer Aktiengesellschaft, priority 2020, dated 2021).

As usually defined, the chromatographic logP is lipophilicity estimated from chromatographic retention.

The nature of the first data set: LogP measurement by HPLC on reversed phase columns (EEC directive 79/831 Annex V.A8). It counts as physicochemical. The conditions noted are these: method [a]: LC-UV, acidic range, 0.1% formic acid in water and acetonitrile as eluent (linear gradient 10% to 95% acetonitrile). The procedure:
Measurement of LogP values was performed according to EEC directive 79/831 Annex V.A8 by HPLC (High Performance Liquid Chromatography) on reversed phase columns with the following methods: • ^[a] LogP value is determined by measurement of LC-UV, in an acidic range, with 0.1% formic acid in water and acetonitrile as eluent (linear gradient from 10% acetonitrile to 95% acetonitrile). • ^[b] LogP value is determined by measurement of LC-UV, in a neutral range, with 0.001 molar ammonium acetate solution in water and acetonitrile as eluent (linear gradient from 10% acetonitrile to 95% acetonitrile). • ^[c] LogP value is determined by measurement of LC-UV, in an acidic range, with 0.1% phosphoric acid and acetonitrile as eluent (linear gradient from 10% acetonitrile to 95% acetonitrile).
If more than one LogP value is available within the same method, all the values are given and separated by "+". […]
As to `CCN(C)C=Nc1cc(C)c([S+]([O-])c2ccccc2F)cc1C` (stereo not drawn) [Example I-011, N-ethyl-N'-[4-(2-fluorophenyl)sul6nyl-2,5-dimethylphenyl]-N-methylmethanimidamide], the chromatographic logP is 0.78.

The same data set, now with this note: reversed phase HPLC columns, method [a]: LC-UV, acidic range, 0.1% formic acid in water and acetonitrile as eluent (linear gradient 10% to 95% acetonitrile).
For `CCN(C)C=Nc1cc(C)c(S(=O)(=O)c2ccccc2)cc1C` [Example I-004, N'-[4-(benzenesulfonyl)-2,5-dimethylphenyl]-N-ethyl-N-methylmethanimidamide], the chromatographic logP is 1.

For `CCN(C)C=Nc1cc(C)c([S+]([O-])c2ccccc2Cl)cc1C` (stereo not drawn) [Example I-010, N'-[4-(2-chlorophenyl)sulfinyl-2,5-dimethylphenyl]-N-ethyl-N-methylmethanimidamide], the chromatographic logP was 0.97.

`CCN(C)C=Nc1cc(C)c([S+]([O-])c2ccccc2C)cc1Cl` (stereo not drawn) [Example I-012, N'-[2-chloro-5-methyl-4-(2-methylphenyl)sulfinylphenyl]-N-ethyl-N-methylmethanimidamide]: the chromatographic logP came to 0.97.

As for `CCN(C)C=Nc1cc(C)c([S+]([O-])c2ccccc2Cl)cc1Cl` (stereo not drawn) [Example I-013, N'-[2-chloro-4-(2-chlorophenyl)sulfinyl-5-methylphenyl]-N-ethyl-N-methylmethanimidamide], the chromatographic logP came to 1.15.

As for `CCN(C)C=Nc1cc(C)c([S+]([O-])c2ccccc2F)cc1Cl` (stereo not drawn) [Example I-014, N'-[2-chloro-4-(2-fluorophenyl)sulfinyl-5-methylphenyl]-N-ethyl-N-methylmethanimidamide], the chromatographic logP amounted to 0.94.

`CCN(C)C=Nc1cc(C)c(S(=O)(=O)c2ccccc2C)cc1Cl` [Example I-015, N'-[2-chloro-5-methyl-4-(2-methylphenyl)sulfonylphenyl]-N-ethyl-N-methylmethanimidamide] had a chromatographic logP of 1.69.

`CCN(C)C=Nc1cc(C)c(S(=O)(=O)c2ccccc2C)cc1C` [Example I-016, N'-[2,5-dimethyl-4-(2-methylphenyl)sulfonylphenyl]-N-ethyl-N-methylmethanimidamide]: the chromatographic logP was 1.18.

Turning to `CCN(C)C=Nc1cc(C)c(S(=O)(=O)c2ccccc2F)cc1C` [Example I-017, N-ethyl-N'-[4-(2-fluorophenyl)sulfonyl-2,5-dimethylphenyl]-N-methylmethanimidamide], the chromatographic logP came out at 1.07.

On to `CCN(C)C=Nc1cc(C)c(S(=O)(=O)c2ccccc2Cl)cc1Cl` [Example I-018, N'-[2-chloro-4-(2-chlorophenyl)sulfonyl-5-methylphenyl]-N-ethyl-N-methylmethanimidamide], for which the chromatographic logP was 2.02.

For the compound `CCN(C)C=Nc1cc(C)c(S(=O)(=O)c2ccccc2F)cc1Cl` [Example I-019, N'-[2-chloro-4-(2-fluorophenyl)sulfonyl-5-methylphenyl]-N-ethyl-N-methylmethanimidamide], the chromatographic logP turned out to be 1.84.

For `CCN(C)C=Nc1cc(F)c(S(=O)(=O)c2ccccc2)cc1C` [Example I-027, N'-[4-(benzenesulfonyl)-5-fluoro-2-methylphenyl]-N-ethyl-N-methylmethanimidamide], the chromatographic logP was found to be 1.18.

Compound `CCN(C)C=Nc1cc(F)c(S(=O)(=O)c2ccccc2C)cc1C` [Example I-028, N-ethyl-N'-[5-fluoro-2-methyl-4-(2-methylphenyl)sulfonylphenyl]-N-methylmethanimidamide] displayed a chromatographic logP of 1.42.

With `CCN(C)C=Nc1cc(F)c(S(=O)(=O)c2ccccc2Cl)cc1C` [Example I-029, N'-[4-(2-chlorophenyl)sulfonyl-5-fluoro-2-methylphenyl]-N-ethyl-N-methylmethanimidamide], the chromatographic logP came out at 1.45.

`CCN(C)C=Nc1cc(Cl)c([S+]([O-])c2ccccc2F)cc1C` (stereo not drawn) [Example I-030, N'-[5-chloro-4-(2-fluorophenyl)sulfinyl-2-methylphenyl]-N-ethyl-N-methylmethanimidamide]: the chromatographic logP was 1.03.

`CCN(C)C=Nc1cc(F)c([S+]([O-])c2ccccc2)cc1C` (stereo not drawn) [Example I-031, N'-[4-(benzenesulfinyl)-5-fluoro-2-methylphenyl]-N-ethyl-N-methylmethanimidamide] displayed a chromatographic logP of 0.78.

`CCN(C)C=Nc1cc(F)c([S+]([O-])c2ccccc2C)cc1C` (stereo not drawn) [Example I-032, N-ethyl-N'-[5-fluoro-2-methyl-4-(2-methylphenyl)sulfinylphenyl]-N-methylmethanimidamide] came in with a chromatographic logP of 1.

Compound `CCN(C)C=Nc1cc(F)c([S+]([O-])c2ccccc2Cl)cc1C` (stereo not drawn) [Example I-033, N'-[4-(2-chlorophenyl)sulfinyl-5-fluoro-2-methylphenyl]-N-ethyl-N-methylmethanimidamide] yielded a chromatographic logP of 1.12.

`CCN(C)C=Nc1cc(Cl)c(S(=O)(=O)c2ccccc2C)cc1C` [Example I-034, N'-[5-chloro-2-methyl-4-(2-methylphenyl)sulfonylphenyl]-N-ethyl-N-methylmethanimidamide] displayed a chromatographic logP of 1.5.

As for `CCN(C)C=Nc1cc(Br)c([S+]([O-])c2ccccc2C)cc1C` (stereo not drawn) [Example I-035, N'-[5-bromo-2-methyl-4-(2-methylphenyl)sulfinylphenyl]-N-ethyl-N-methylmethanimidamide], the chromatographic logP amounted to 1.12.

As for `CCN(C)C=Nc1cc(Br)c([S+]([O-])c2ccccc2Cl)cc1C` (stereo not drawn) [Example I-036, N'-[5-bromo-4-(2-chlorophenyl)sulfinyl-2-methylphenyl]-N-ethyl-N-methylmethanimidamide], the chromatographic logP came out at 1.26.

`CCN(C)C=Nc1cc(Cl)c([S+]([O-])c2ccccc2C)cc1C` (stereo not drawn) [Example I-037, N'-[5-chloro-2-methyl-4-(2-methylphenyl)sulfinylphenyl]-N-ethyl-N-methylmethanimidamide] came in with a chromatographic logP of 1.1.

As for `CCN(C)C=Nc1cc(Br)c([S+]([O-])c2ccccc2)cc1C` (stereo not drawn) [Example I-038, N'-[4-(benzenesulfinyl)-5-bromo-2-methylphenyl]-N-ethyl-N-methylmethanimidamide], the chromatographic logP was determined as 1.

As to `CCN(C)C=Nc1cc(Cl)c([S+]([O-])c2ccccc2Cl)cc1C` (stereo not drawn) [Example I-040, N'-[5-chloro-4-(2-chlorophenyl)sulfinyl-2-methylphenyl]-N-ethyl-N-methylmethanimidamide], the chromatographic logP amounted to 1.23.

For the compound `CCN(C)C=Nc1cc(Br)c([S+]([O-])c2ccccc2F)cc1C` (stereo not drawn) [Example I-043, N'-[5-bromo-4-(2-fluorophenyl)sulfinyl-2-methylphenyl]-N-ethyl-N-methylmethanimidamide], the chromatographic logP was found to be 1.1.

The compound `CCN(C)C=Nc1cc(Cl)c(S(=O)(=O)c2ccccc2)cc1C` [Example I-048, N'-[4-(benzenesulfonyl)-5-chloro-2-methylphenyl]-N-ethyl-N-methylmethanimidamide] came in with a chromatographic logP of 1.31.

`CCN(C)C=Nc1cc(C)c(S(=O)(=O)c2ccccc2C#N)cc1C` [Example I-049, N'-[4-(2-cyanophenyl)sulfonyl-2,5-dimethylphenyl]-N-ethyl-N-methylmethanimidamide] gave a chromatographic logP of 1.

In the case of `CCN(C)C=Nc1cc(Cl)c([S+]([O-])c2ccccc2)cc1C` (stereo not drawn) [Example I-050, N'-[4-(benzenesulfinyl)-5-chloro-2-methylphenyl]-N-ethyl-N-methylmethanimidamide], the chromatographic logP stood at 0.97.

`CCN(C)C=Nc1cc(Cl)c([S+]([O-])c2ccccc2C#N)cc1C` (stereo not drawn) [Example I-051, N'-[5-chloro-4-(2-cyanophenyl)sulfinyl-2-methylphenyl]-N-ethyl-N-methylmethanimidamide]: the chromatographic logP is 0.87.

Take `CCN(C)C=Nc1cc(Cl)c(S(=O)(=O)c2ccccc2C#N)cc1C` [Example I-053, N'-[5-chloro-4-(2-cyanophenyl)sulfonyl-2-methylphenyl]-N-ethyl-N-methylmethanimidamide]: the chromatographic logP was 1.31.

Turning to `CCN(C)C=Nc1cc(C#N)c(S(=O)(=O)c2ccccc2)cc1C` [Example I-055, N'-[4-(benzenesulfonyl)-5-cyano-2-methylphenyl]-N-ethyl-N-methylmethanimidamide], the chromatographic logP turned out to be 1.53.

`CCN(C)C=Nc1cc(C#N)c([S+]([O-])c2ccccc2)cc1C` (stereo not drawn) [Example I-056, N'-[4-(benzenesulfinyl)-5-cyano-2-methylphenyl]-N-ethyl-N-methylmethanimidamide]: the chromatographic logP was 0.87.

`CCN(C)C=Nc1cc(C#N)c([S+]([O-])c2ccccc2C)cc1C` (stereo not drawn) [Example I-057, N'-[5-cyano-2-methyl-4-(2-methylphenyl)sulfinylphenyl]-N-ethyl-N-methylmethanimidamide]: the chromatographic logP turned out to be 1.28.

`CCN(C)C=Nc1cc(C#N)c(S(=O)(=O)c2ccccc2C)cc1C` [Example I-059, N'-[5-cyano-2-methyl-4-(2-methylphenyl)sulfonylphenyl]-N-ethyl-N-methylmethanimidamide] gave a chromatographic logP of 1.8.

On to `CCN(C)C=Nc1cc(C#N)c([S+]([O-])c2ccccc2Cl)cc1C` (stereo not drawn) [Example I-061, N'-[4-(2-chlorophenyl)sulfinyl-5-cyano-2-methylphenyl]-N-ethyl-N-methylmethanimidamide], for which the chromatographic logP came out at 1.27.

Regarding `CCN(C)C=Nc1cc(C#N)c(S(=O)(=O)c2ccccc2Cl)cc1C` [Example I-062, N'-[4-(2-chlorophenyl)sulfonyl-5-cyano-2-methylphenyl]-N-ethyl-N-methylmethanimidamide], the chromatographic logP is 1.84.
